In ChEMBL document CHEMBL1201862, “PubChem BioAssay data set” (2004):
Calls of active or inactive are those of the source.

Assays:
Hexokinase HKDC1 = molecular target: T1, Hexokinase HKDC1 (Homo sapiens, UniProt Q2TB90); assay: activation of HKDC1 glucose phosphorylation – biochemical, W721R variant, dose response (AID 504730); format: functional
T1 sequence (Q2TB90 whole entry): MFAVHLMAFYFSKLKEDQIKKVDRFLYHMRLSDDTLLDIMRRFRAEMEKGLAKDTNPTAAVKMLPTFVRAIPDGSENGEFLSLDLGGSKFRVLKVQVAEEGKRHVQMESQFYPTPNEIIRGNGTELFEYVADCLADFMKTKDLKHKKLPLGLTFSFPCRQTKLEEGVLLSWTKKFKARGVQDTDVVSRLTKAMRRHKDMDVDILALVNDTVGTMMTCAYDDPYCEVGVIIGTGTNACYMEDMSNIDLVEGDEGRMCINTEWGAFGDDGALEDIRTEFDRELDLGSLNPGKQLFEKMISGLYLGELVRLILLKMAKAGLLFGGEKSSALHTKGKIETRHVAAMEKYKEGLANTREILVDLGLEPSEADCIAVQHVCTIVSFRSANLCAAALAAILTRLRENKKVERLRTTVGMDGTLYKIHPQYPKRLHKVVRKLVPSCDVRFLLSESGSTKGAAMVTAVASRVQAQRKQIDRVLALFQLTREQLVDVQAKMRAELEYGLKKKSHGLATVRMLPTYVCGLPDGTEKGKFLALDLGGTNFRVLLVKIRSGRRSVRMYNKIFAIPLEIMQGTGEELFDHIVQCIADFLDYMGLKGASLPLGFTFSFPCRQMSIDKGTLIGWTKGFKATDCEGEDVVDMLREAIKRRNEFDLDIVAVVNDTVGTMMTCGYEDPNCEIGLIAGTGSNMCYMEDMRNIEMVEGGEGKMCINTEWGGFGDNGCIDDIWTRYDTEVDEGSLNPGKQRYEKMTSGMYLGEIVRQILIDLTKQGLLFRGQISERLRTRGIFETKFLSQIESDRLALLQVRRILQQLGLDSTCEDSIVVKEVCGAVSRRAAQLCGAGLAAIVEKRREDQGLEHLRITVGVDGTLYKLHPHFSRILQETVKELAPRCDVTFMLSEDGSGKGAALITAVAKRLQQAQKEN

Hexokinase-1 = molecular target: T2, Hexokinase-1 (Homo sapiens, UniProt P19367); assay: HK1 enzyme activation by HKDC1 hits – biochemical, selectivity assay for HKDC1 activator project, dose response (AID 504762); format: functional
T2 sequence (P19367 whole entry): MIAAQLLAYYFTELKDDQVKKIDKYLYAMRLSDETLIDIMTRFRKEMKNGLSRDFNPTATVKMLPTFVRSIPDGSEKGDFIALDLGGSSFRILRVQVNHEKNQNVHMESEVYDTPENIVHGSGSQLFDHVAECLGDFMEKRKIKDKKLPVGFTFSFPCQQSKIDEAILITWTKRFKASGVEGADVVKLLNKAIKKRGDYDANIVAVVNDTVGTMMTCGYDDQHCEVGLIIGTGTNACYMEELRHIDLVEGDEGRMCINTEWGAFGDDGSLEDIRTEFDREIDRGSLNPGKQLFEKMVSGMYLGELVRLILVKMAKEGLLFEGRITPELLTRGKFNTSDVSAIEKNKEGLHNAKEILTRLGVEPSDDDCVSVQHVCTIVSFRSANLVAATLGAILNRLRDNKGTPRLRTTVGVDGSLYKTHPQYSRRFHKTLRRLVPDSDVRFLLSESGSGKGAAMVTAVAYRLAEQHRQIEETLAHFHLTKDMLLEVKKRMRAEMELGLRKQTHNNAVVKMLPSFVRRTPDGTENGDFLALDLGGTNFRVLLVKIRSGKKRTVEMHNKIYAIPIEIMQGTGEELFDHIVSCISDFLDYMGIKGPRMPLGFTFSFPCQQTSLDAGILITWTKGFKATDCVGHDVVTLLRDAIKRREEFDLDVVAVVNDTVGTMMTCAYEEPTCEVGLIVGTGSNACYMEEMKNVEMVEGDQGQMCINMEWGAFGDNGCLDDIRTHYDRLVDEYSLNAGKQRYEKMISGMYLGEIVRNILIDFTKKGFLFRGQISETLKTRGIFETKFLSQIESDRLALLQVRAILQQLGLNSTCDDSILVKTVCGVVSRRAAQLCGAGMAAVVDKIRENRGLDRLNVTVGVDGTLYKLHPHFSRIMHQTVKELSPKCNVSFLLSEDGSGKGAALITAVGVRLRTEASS

[1] = molecular target: Histone-lysine N-methyltransferase NSD2 (Homo sapiens, UniProt O96028); format: biochemical
Sequence of Histone-lysine N-methyltransferase NSD2 (O96028 whole entry): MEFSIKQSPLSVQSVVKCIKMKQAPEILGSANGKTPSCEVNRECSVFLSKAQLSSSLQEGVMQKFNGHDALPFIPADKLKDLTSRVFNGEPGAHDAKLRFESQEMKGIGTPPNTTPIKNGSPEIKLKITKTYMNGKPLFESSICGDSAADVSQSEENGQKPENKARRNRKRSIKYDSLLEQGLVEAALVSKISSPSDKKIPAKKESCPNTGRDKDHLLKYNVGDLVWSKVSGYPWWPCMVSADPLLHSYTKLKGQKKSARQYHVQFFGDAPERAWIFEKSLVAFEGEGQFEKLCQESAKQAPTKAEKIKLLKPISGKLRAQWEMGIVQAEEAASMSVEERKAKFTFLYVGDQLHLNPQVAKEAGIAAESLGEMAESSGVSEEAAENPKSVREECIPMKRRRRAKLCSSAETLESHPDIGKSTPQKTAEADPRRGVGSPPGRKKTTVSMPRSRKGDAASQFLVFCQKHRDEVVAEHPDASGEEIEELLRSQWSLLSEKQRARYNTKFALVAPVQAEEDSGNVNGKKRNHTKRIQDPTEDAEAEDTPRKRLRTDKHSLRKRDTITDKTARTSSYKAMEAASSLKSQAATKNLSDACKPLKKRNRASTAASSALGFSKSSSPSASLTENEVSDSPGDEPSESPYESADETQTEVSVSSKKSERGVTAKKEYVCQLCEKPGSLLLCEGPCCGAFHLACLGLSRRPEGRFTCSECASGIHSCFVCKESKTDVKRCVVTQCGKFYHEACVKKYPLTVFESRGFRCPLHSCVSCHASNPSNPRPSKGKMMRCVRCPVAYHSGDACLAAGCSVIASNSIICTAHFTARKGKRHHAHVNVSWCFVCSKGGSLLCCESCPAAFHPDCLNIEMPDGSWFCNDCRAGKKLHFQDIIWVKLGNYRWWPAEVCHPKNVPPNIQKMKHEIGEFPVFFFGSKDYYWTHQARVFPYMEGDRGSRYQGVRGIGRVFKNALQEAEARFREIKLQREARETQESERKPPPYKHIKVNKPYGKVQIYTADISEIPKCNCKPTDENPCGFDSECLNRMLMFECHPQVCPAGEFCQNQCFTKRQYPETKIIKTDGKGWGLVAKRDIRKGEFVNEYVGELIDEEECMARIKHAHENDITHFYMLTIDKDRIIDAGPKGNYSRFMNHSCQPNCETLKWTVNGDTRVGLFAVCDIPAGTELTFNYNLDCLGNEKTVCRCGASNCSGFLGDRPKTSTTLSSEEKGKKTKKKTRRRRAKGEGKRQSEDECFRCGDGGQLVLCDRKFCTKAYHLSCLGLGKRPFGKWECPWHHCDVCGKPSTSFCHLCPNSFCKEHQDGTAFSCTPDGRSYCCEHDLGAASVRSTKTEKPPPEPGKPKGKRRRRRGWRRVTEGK

[2] = molecular target: Heat shock protein HSP 90-alpha (Homo sapiens, UniProt P07900); format: functional, organism-based
Keap1/Nrf2 = Keap1/Nrf2 (Homo sapiens, UniProt Q14145); assay: disruptors of Keap1 binding to Nrf2 peptide – biochemical, fluorescence polarization, cherry-picked samples, dose response (AID 588683)
Sequence of Keap1/Nrf2 (Q16236 whole entry, the tested form may be a part): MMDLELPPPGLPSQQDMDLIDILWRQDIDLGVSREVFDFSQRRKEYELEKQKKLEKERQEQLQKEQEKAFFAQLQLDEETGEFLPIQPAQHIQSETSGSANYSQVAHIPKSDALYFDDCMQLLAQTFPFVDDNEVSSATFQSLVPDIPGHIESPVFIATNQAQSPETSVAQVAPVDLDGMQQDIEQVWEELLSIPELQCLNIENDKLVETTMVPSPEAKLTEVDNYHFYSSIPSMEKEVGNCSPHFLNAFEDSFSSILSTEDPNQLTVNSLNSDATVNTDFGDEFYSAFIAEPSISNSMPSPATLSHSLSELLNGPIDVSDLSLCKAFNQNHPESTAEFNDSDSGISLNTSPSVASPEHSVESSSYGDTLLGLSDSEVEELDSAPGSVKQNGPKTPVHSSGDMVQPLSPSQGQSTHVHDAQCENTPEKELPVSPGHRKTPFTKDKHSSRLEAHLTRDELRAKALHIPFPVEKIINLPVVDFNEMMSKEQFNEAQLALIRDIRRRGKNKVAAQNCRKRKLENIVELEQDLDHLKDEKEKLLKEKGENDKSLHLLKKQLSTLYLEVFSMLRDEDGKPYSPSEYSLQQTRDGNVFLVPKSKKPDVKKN
Sequence of Keap1/Nrf2 (Q14145 whole entry, the tested form may be a part): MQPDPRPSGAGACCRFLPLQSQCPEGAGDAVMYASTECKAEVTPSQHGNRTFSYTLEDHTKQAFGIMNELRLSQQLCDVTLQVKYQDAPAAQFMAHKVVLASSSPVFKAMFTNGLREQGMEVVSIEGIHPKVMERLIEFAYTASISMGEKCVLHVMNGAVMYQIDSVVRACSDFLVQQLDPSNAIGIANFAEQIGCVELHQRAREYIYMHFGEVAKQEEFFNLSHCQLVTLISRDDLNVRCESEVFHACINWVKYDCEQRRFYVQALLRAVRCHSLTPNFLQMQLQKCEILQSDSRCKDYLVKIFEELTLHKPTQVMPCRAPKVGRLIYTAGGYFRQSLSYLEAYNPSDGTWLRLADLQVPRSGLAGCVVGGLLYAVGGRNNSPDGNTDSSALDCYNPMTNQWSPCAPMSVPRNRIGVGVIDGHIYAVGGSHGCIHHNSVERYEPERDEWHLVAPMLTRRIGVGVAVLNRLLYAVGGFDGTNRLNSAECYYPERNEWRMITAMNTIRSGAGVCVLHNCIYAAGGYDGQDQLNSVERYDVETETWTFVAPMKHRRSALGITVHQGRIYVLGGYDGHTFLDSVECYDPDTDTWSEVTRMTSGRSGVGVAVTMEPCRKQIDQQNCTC

[3] = molecular target: Photoreceptor-specific nuclear receptor (Homo sapiens, UniProt Q9Y5X4); format: functional, cell-based;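 note: CHO-S cells with Gal4-NCOR and VP16-NR2E3 two-hybrid luciferase reporter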
Sequence of Photoreceptor-specific nuclear receptor (Q9Y5X4 whole entry, the tested form may be a part): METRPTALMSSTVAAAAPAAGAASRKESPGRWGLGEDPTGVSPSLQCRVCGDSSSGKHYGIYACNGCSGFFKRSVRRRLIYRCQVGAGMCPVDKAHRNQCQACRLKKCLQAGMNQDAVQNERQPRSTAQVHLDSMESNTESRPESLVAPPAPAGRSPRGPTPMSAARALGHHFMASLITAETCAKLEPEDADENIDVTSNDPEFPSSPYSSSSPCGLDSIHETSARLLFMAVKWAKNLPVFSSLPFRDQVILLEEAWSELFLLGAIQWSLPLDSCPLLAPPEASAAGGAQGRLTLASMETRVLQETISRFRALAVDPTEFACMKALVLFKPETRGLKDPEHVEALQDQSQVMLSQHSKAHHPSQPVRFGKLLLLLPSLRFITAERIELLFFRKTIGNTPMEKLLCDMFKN

Protein S100-A4 = Protein S100-A4 (Homo sapiens, UniProt P26447); assay: human S100A4 peptide interaction inhibition curves – biochemical, fluorescence polarization, cherry-picked hits, dose response (AID 687001); format: functional
Sequence of Protein S100-A4 (P26447 whole entry): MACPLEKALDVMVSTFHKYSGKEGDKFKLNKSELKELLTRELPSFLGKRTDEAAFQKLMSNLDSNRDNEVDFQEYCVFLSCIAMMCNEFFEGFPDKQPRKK

Paired box protein Pax-8 = Paired box protein Pax-8 (Homo sapiens, UniProt Q06710); assay: PAX8 transcriptional activity inhibition in RMG-I – RMG-I cells, luciferase, cherry-pick, dose response (AID 687027); format: functional, cell-based;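 note: luciferase reporter driven by Pax8 target thyroperoxidase promoter measured by SteadyGlo luminescence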
Sequence of Paired box protein Pax-8 (Q06710 whole entry): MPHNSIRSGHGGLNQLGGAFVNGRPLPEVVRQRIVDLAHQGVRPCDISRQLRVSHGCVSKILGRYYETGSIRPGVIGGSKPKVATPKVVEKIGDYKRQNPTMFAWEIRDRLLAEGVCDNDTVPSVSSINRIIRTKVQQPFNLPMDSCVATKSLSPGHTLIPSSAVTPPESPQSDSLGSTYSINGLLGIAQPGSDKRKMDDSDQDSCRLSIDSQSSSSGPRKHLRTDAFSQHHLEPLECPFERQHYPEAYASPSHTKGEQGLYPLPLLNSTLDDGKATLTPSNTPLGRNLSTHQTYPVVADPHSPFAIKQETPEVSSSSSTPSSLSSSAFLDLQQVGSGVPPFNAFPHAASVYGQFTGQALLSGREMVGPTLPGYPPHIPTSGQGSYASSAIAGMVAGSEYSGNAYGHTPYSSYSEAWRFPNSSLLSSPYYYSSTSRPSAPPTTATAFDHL

[4] = NIH-3T3 fibroblast cytotoxicity, dose response, cytotoxicity control, cell-based, fluorescence, Alamar Blue, secondary assay (AID 2327); format: functional;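 note: NIH-3T3 mouse fibroblasts cultured with fluconazole at 8 µg/mL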
[5] = luciferase reporter signal suppression in cells – H4 neuroglioma cells, luminescence, dose response (AID 1990); format: functional, cell-based
[6] = decrease of insulin promoter-GFP reporter – imaging, high-content screening, mouse beta cells (AID 1628); format: functional; conditions: MIN6
BJ [7] = assay: BJ-TERT fibroblast viability loss – cell-based, RAS-independent, luminescence, dose response (AID 1933); format: functional; conditions: Homo sapiens
[8] = Luminescence Cell-Based Dose Response HTS to Identify Inhibitors of 5'UTR Stem-Loop Driven Prion Protein mRNA Translation in H4 Neuroglioblastoma Cells. [Related pubchem assays: 1827 (Project Summary), 1813 (Primary HTS)]; format: functional
[9] = MIN6 cell viability loss – mouse insulinoma, cytotoxicity control, dose response (AID 2122); format: functional;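 note: confirmatory high-throughput counterscreen run to flag cytotoxic compounds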
[10] = alpha-synuclein stem-loop luciferase translation blockers – H4 neuroglioma cells, luminescence, confirmation (AID 1988); format: functional, cell-based
BJ [11] = assay: cells; format: functional, cell-based; conditions: Homo sapiens
[12] = fluconazole-exposed Candida albicans growth modulators – fluorescence, retest, confirmation (AID 2467); format: functional, cell-based
[13] = HPDE-C7 pancreatic duct cell viability loss – fluorescence, HTS (AID 430); format: functional, cell-based; conditions: Homo sapiens
[14] = Luminescence-based dose response cell-based high throughput screening assay for cytotoxic compounds using the IEC-6 intestinal epithelial cell line. [Related pubchem assays: 1858 (Summary AID.), 1825 (Counterscreen.), 1907 (Confirmation screen.)]; format: functional
[15] = viability loss of HPDE-C7K cells – cell-based, fluorescence, HTS, primary screen (AID 431); format: functional; conditions: Homo sapiens
BJ [16] = assay: BJ-TERT-LT-ST fibroblast viability loss – cell-based, RAS-independent, luminescence, dose response (AID 1935); format: functional; conditions: Homo sapiens;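 note: BJ fibroblasts immortalized with TERT plus LT and ST oncogenes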
[17] = DRD fibroblast viability loss – cell-based, non-viral oncogenic, luminescence, dose response (AID 1934); format: functional; conditions: Homo sapiens
[18] = molecular target: Intestinal-type alkaline phosphatase (Mus musculus, UniProt P24822); assay: PubChem AID 488874; format: functional
Sequence of Intestinal-type alkaline phosphatase (Mus musculus, UniProt P24822) (P24822 whole entry): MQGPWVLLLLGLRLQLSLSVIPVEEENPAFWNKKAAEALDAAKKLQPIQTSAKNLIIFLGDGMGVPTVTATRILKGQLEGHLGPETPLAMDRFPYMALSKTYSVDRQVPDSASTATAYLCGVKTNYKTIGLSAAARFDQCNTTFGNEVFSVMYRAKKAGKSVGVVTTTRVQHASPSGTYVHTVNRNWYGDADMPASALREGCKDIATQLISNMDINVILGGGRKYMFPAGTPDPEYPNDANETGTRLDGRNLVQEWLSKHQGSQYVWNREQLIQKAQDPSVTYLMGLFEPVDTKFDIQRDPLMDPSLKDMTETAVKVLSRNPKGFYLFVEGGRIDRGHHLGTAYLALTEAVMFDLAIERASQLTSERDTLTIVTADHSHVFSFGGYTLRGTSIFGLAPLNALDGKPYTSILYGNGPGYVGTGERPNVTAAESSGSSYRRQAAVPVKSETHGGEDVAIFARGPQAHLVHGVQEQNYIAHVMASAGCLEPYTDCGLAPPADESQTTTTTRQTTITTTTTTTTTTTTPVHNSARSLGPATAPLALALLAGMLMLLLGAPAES

[19] = THP-1 cell cytotoxicity, dose response, cytotoxicity control for non-replicating M. tuberculosis project (AID 489025); format: functional
[20] = HepG2 cell cytotoxicity, dose response, cytotoxicity control for non-replicating M. tuberculosis project (AID 489018); format: functional; conditions: Mycobacterium tuberculosis
[21] = molecular target: T3, Intestinal-type alkaline phosphatase (Homo sapiens, UniProt P09923); assay: human intestinal alkaline phosphatase activators, dose response, biochemical, luminescence, uHTS hits (AID 463120); format: functional
T3 sequence (P09923 whole entry): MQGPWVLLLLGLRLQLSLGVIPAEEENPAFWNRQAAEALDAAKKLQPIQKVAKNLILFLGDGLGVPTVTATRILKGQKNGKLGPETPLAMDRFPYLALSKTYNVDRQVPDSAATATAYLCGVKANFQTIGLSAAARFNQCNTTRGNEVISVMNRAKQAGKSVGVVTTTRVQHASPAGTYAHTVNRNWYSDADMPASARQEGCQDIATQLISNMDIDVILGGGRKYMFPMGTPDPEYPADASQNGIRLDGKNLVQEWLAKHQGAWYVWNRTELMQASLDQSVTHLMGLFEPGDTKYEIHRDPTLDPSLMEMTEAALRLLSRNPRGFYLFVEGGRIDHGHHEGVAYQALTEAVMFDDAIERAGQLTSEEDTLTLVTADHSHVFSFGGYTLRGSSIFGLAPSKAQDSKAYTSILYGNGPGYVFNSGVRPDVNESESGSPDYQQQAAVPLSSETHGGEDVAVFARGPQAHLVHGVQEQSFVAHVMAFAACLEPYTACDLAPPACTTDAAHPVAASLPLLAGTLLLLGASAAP

[22] = Vero E6 cell cytotoxicity, dose response, cytotoxicity control for non-replicating M. tuberculosis project, secondary assay (AID 492998); format: functional, VeroE6; conditions: Vero C1008
[23] = HEK-293T viability loss after treatment – luminescence, T-cell screen hits, cytotoxicity control for TCR NF-kB inhibitor project, dose response (AID 489026); format: functional, cell-based;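 note: cells exposed to compound about 14 hours before the viability readout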
Nonstructural protein 1 = Nonstructural protein 1 (Influenza A virus, UniProt Q194T2); format: functional, Influenza A virus (A/California/07/2009(H1N1))
Sequence of Nonstructural protein 1 (Q194T2 whole entry): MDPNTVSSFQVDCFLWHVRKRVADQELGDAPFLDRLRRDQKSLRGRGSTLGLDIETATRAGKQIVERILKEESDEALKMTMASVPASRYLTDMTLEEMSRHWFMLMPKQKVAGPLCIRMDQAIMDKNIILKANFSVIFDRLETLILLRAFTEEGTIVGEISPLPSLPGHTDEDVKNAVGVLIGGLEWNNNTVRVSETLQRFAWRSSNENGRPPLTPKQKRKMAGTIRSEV

[24] = molecular target: T3, Intestinal-type alkaline phosphatase; assay: activation of human intestinal alkaline phosphatase – biochemical, luminescent, uHTS hits, set 2, dose response (AID 488817); format: functional;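 note: potency of activators that raise enzyme activity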
[25] = molecular target: T4, Alkaline phosphatase, tissue-nonspecific isozyme (Homo sapiens, UniProt P05186); assay: activation of tissue-nonspecific alkaline phosphatase – biochemical, TNAP isozyme, human IAP uHTS hits, selectivity assay for human IAP activator project, dose response (AID 488886); format: functional;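 note: potency of compounds raising TNAP activity as a selectivity check on IAP activators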
T4 sequence (P05186 whole entry): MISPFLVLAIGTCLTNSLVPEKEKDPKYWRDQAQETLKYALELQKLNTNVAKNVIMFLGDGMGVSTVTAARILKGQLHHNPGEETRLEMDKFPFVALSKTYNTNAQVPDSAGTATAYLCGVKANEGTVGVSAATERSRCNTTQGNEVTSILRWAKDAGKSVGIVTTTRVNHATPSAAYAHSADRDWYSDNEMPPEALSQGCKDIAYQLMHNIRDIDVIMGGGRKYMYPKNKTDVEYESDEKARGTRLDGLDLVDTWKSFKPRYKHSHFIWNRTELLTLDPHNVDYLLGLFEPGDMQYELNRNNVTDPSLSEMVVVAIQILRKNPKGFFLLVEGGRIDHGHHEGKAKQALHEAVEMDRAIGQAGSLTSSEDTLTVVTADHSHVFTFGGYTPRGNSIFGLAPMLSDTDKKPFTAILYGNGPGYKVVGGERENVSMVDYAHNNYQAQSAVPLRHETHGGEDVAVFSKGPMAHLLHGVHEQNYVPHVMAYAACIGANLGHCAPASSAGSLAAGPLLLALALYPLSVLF

cells = format: functional
HEK293 = assay: EBV LMP1 TES2 canonical NF-kB signalling blockers – cell-based, HEK293, luciferase, cherry-pick, dose response (AID 588343); format: functional; conditions: Homo sapiens
INS1 = assay: INS-1E survival protection against cytokine death – cell-based, luminescence, retest, dose response (AID 449756); format: functional; conditions: Rattus norvegicus;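 note: cell death triggered by IL-1 beta plus TNF-alpha plus IFN-gamma mixture; protective hits raise ATP signal compared with cytokine alone wells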

## CC(=O)Oc1cccc2c1C(=O)C1CC=CC(OC(C)=O)C1C2=O (stereo not given)
Hexokinase HKDC1
  EC50: 51600 nM (inactive)
Hexokinase-1
  EC50: 34100 nM (inactive)
[1]
  AC50: 10400 nM (active)

## COc1cccc2c1C(=O)c1c(O)c3c(c(O)c1C2=O)CC(O)(C(C)=O)CC3OC1CC(N(C)C)C(O)C(C)O1 (stereo not given)
[2]
  AC50: 807 nM (active)
Keap1/Nrf2
  AC50: > 52000 nM (inactive)
[3]
  IC50: 3820 nM (active)
Protein S100-A4
  AC50: 304 nM (active)
Paired box protein Pax-8
  AC50: 1520 nM (active)

## c1ccc(-c2cccc(-c3ccccn3)n2)nc1 [TERPYRIDINE]
[4]
  EC50: 1320 nM (active)
[5]
  EC50: < 100 nM (active)
[6]
  IC50: 504 nM (active)
BJ [7]
  EC50: 11200 nM (active)
[8]
  EC50: < 100 nM (active)
[9]
  IC50: 716 nM (active)
[10]
  EC50: < 100 nM (active)
BJ [11]
  EC50: 4870 nM (active)
[12]
  EC50: 349 nM (active)
[13]
  EC50: 4140 nM (active)
[14]
  IC50: 483 nM (active)
[15]
  EC50: 2540 nM (active)
BJ [16]
  EC50: 4320 nM (inconclusive)
[17]
  EC50: 17100 nM (inconclusive)
[18]
  IC50: > 100000 nM (inactive)
[19]
  CC50: 210 nM (active)
[20]
  CC50: > 20000 nM (active)
[21]
  EC50: 16800 nM (active)
[22]
  CC50: 1020 nM (active)
[23]
  IC50: > 80000 nM (inactive)
Nonstructural protein 1
  IC50: 1840 nM (active)
[24]
  EC50: 25300 nM (active)
[25]
  EC50: 27500 nM (active)
cells
  IC50: 44900 nM (active)
HEK293
  AC50: 2110 nM (active)
[2]
  AC50: 1350 nM (active)
INS1
  AC50: < 195 nM (active)
